Assay results as given in patent US20190119284A1, “ErbB Inhibitors and Uses Thereof” (The Regents of the University of California, priority 2016, published 2019).
One block for each compound: values may come before it.

Assays:
wt HER2 or HER2 T798M = assay: HEK-293T cells transfected with wt HER2 or HER2 T798M; format: cell-based; conditions: HER2 T798M vs wt, 1 nM-10 μM
JAK3 = JAK3 (Homo sapiens, UniProt P52333); assay: Nanosyn in vitro kinase profiling: JAK3; format: biochemical
Method: (§1) This was confirmed by in vitro profiling against a panel of kinases, with compound 2 only showing potent inhibition of EGFR and Ab1 (Table 2).
(§2) In vitro Kinome Screen. In vitro profiling of compound 2 at 100 nM was conducted by Nanosyn.

TIE2 = TIE2 (Homo sapiens, UniProt Q02763); assay: Nanosyn in vitro kinase profiling: TIE2; format: biochemical
TIE2, sequence (Q02763 23-1124, species assumed): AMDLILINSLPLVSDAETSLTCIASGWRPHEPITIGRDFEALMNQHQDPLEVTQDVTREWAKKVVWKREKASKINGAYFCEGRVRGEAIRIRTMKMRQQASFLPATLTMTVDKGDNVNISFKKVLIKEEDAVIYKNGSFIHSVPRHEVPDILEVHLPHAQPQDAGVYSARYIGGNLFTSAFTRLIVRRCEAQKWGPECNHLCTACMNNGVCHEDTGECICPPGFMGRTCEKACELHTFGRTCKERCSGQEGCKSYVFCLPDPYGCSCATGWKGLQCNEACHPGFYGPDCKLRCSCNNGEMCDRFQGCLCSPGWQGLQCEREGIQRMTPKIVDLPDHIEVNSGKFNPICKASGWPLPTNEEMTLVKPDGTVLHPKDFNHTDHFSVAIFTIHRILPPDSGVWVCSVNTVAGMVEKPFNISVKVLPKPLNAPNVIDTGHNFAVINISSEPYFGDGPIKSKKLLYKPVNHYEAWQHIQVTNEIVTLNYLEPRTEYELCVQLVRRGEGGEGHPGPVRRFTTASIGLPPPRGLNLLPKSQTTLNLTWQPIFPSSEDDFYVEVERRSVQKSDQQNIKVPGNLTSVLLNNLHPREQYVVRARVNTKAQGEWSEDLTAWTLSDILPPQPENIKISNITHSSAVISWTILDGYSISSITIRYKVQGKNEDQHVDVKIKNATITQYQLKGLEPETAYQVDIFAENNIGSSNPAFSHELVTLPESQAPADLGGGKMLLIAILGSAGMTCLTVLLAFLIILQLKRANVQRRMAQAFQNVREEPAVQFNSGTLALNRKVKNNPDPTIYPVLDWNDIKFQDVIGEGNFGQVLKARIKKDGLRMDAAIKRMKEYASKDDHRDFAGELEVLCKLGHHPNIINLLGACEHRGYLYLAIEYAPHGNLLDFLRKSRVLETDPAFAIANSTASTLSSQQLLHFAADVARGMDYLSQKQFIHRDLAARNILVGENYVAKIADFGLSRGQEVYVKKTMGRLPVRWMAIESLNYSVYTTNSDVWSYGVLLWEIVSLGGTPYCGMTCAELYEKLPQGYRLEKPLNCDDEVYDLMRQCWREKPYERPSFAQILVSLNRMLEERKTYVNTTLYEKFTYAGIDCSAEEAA
Method: as §1, §2

MEK1 = MEK1 (Homo sapiens, UniProt Q02750); assay: Nanosyn in vitro kinase profiling: MEK1; format: biochemical; conditions: compound at 1 μM
MEK1, sequence (Q02750 whole entry, species assumed): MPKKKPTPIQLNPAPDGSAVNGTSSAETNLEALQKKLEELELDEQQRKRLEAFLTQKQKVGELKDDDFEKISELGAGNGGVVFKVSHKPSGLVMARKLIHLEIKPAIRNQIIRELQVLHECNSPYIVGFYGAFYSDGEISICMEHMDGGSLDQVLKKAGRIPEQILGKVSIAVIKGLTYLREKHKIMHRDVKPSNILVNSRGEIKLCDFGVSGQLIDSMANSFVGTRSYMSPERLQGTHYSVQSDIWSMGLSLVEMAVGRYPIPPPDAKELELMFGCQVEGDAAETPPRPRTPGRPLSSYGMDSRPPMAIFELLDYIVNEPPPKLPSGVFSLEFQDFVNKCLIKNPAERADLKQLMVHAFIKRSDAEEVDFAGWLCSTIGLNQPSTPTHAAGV

[1] = test system: HER2/HER3 signaling in FaDu cells; assay: HER2/HER3 signaling in FaDu cells, 24 h; format: cell-based; conditions: dose response 24 h, compared with lapatinib
Text: FIGS. 20A-20B. […] FIG. 20A. […] FIG. 20B.

MEK2 = MEK2 (Homo sapiens, UniProt P36507); assay: Nanosyn in vitro kinase profiling: MEK2; format: biochemical; conditions: compound at 1 μM
MEK2, sequence (P36507 whole entry, species assumed): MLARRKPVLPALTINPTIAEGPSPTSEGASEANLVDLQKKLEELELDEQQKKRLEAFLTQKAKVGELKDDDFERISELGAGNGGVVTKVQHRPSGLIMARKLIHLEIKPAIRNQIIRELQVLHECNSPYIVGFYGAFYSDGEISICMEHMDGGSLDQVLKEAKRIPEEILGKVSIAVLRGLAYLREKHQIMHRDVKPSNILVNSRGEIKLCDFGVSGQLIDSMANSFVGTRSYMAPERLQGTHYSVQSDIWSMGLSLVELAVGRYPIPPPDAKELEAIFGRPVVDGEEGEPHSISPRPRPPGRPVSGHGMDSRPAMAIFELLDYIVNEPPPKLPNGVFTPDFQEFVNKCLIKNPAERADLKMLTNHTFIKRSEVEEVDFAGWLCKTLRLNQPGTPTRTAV

[2] = molecular target: T1, 2YF-VC/3wt + NRG Ba/F3 cells (Homo sapiens, UniProt P04626, DELINS776-776VC/Y1005F/Y1023F/Y1112F/Y1127F/Y1139F/Y1196F/Y1221F/Y1222F/Y1248F, cells depend on it); assay: Ba/F3 proliferation assay, 2YF-VC/3wt + NRG; format: cell-based; conditions: Table 4; ± S.D., n = 2; read-out: IC50, 2YF-VC/3wt + NRG
T1 construct: reported HER2 oncogenic mutants in the HER2YF construct
T1 sequence (P04626 with tags, fused parts or gaps with the stated changes): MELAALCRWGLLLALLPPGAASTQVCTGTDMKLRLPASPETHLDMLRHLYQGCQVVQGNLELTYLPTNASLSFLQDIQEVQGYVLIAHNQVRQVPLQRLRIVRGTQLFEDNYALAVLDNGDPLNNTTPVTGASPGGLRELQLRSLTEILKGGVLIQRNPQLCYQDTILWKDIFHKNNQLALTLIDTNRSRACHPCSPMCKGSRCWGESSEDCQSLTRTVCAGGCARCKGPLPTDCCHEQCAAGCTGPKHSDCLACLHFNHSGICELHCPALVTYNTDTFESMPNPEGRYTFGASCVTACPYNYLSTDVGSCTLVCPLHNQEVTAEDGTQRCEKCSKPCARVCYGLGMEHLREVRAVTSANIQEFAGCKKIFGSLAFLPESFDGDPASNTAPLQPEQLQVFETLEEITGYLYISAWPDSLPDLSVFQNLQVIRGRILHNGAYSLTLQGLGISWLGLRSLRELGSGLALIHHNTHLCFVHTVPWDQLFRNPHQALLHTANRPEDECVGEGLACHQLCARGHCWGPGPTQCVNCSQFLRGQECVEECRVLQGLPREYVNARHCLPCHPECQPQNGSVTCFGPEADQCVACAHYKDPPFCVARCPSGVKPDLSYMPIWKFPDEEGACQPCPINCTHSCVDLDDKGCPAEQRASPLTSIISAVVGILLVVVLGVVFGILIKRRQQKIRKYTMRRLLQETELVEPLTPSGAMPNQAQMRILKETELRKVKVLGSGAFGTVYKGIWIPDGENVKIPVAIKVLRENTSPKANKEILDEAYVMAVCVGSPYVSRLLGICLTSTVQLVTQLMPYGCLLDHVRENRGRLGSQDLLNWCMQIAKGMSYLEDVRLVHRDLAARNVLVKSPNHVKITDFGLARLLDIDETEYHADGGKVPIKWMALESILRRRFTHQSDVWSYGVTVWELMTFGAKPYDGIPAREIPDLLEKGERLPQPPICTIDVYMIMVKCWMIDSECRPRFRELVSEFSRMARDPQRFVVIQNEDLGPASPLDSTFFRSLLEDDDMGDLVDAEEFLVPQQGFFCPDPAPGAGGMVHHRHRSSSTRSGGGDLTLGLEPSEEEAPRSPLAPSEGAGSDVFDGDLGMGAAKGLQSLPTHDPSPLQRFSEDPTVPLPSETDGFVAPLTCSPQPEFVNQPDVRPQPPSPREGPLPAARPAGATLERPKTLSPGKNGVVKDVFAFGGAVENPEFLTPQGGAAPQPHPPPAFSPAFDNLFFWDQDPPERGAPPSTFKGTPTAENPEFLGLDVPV
Method: For the 2YF/3wt cells, the parental cells were first transduced with HER3 according to the protocol above and were then spun down at 500×g for 5 min and re-suspended in media supplemented with 10 ng/mL IL-3 and 3 μg/mL puromycin (Invitrogen). Cells were maintained in these conditions for seven days, passaging as required. After seven days the cells were spun down, washed with fresh media, and then used for a subsequent round of transduction according to the protocol above with HER2YF virus. […] The cells were maintained in these conditions for seven days, passaging as required. After seven days the cells were spun down, washed with fresh media, and then suspended in media supplemented with 10 ng/mL of NRG. Cells were maintained in these conditions for seven days to select for a NRG dependent population of 2YF/3wt Ba/F3 cells that were then maintained as described above. The same protocol was used for the 2YF-L755S/3wt, 2YF-YVMA/3wt, and 2YF-VC/3wt cell lines using the indicated constructs.
Proliferation Assays. […] The following day media was changed to fresh media that contained either DMSO or the indicated concentration of drug plus NRG (50 ng/mL final concentration) as indicated. […] For all normalized assays, proliferation was normalized to the DMSO control condition. […]

BT-474 cells = assay: 72 h proliferation of BT-474 cells in the presence or absence of NRG; format: cell-based; conditions: BT-474, 72 h dose response +/- NRG
Method: FIGS. 1A-1E. NRG rescues HER2 over-expressing cancer cells from HER2 inhibitors. […] FIG 1B: Same experiment as depicted in FIG. 1A, but with the inhibitor TAK-285. FIG. 1C: The ability of NRG to rescue SK-BR-3 and BT-474 cell proliferation from HER2 inhibitors is dose dependent. Cells were treated with 1 μM of the indicated inhibitor in the presence of varying concentrations of NRG, and proliferation was read out after 72 h (mean±SD, n=3). […] FIG. 1E: Cartoon schematic of the EGFR family kinase domain asymmetric dimer. The C-terminal domain of the ‘activator’ kinase (right) interacts with the N-terminal portion of the ‘receiver’ kinase (left). This interaction stabilizes the active conformation of the receiver kinase identified by the ‘in’ conformation of the receiver kinase's α-C helix and the ordered extension of the activation loop.
(§3) FIGS. 5A-5D. […] FIG. 5A: Chemical structure of compound 3 (also referred to herein as compound 178). FIG. 5B: Proliferation curves for compound 3 against the Ba/F3 cell line panel (mean±SD, n=3). […] FIG. 5D: The same assay in FIG. 2A was performed with compound 3 in SK-BR-3 cells.

[3] = test system: Ba/F3 cell line panel (HER2YF/HER3); assay: 48 h proliferation of the Ba/F3 cell line panel (CellTiter-Glo); format: cell-based; conditions: 48 h proliferation curves
Method: FIGS. 3A-3D. Design and execution of a high-throughput screen identifies a novel HER2/HER3 inhibitor. FIG. 3A: 2YF/3wt cells were incubated in the presence or absence of NRG for 48 h and proliferation was assessed by CellTiter-Glo (mean±SD, n=1). […] FIG. 3C: Structure and proliferation curves for hit compound 1 (also referred herein as compound 185) against the Ba/F3 cell line panel (mean±SD, n=3), FIG. 3D: Structure and proliferation curves for compound 2 (also referred to herein as compound 55A) against the panel of Ba/F3 cell lines (mean±SD, n=3).
FIGS. 4A-4F. Compound 2 is a selective Type I inhibitor for HER2. […] FIG. 4B: Thermal stabilization of the HER3 kinase domain by either compound 2 or ATP as determined by Thermofluor (mean±SD, n=3). FIGS. 4C-4D: The crystal structure of either erlotinib (FIG. 4C) or 2 (FIG. 4D) bound to EGFR V924R. The kinase domain in complex with compound 2 has been stabilized in the active confirmation by drug binding, despite the mutation—as evidenced by the ordered extension of the activation loop and the inward positioning of the α-C helix.
as §3
FIG. 10. […]

[4] = test system: HER2/HER3 signaling in SK-BR-3 cells; assay: HER2/HER3 signaling in SK-BR-3 cells (western blot); format: cell-based
Text: FIGS. 1A-1E. […] FIG. 1E: Cartoon schematic of the EGFR family kinase domain asymmetric dimer. The C-terminal domain of the ‘activator’ kinase (right) interacts with the N-terminal portion of the ‘receiver’ kinase (left). This interaction stabilizes the active conformation of the receiver kinase identified by the ‘in’ conformation of the receiver kinase's α-C helix and the ordered extension of the activation loop.

JAK3, sequence (P52333 whole entry): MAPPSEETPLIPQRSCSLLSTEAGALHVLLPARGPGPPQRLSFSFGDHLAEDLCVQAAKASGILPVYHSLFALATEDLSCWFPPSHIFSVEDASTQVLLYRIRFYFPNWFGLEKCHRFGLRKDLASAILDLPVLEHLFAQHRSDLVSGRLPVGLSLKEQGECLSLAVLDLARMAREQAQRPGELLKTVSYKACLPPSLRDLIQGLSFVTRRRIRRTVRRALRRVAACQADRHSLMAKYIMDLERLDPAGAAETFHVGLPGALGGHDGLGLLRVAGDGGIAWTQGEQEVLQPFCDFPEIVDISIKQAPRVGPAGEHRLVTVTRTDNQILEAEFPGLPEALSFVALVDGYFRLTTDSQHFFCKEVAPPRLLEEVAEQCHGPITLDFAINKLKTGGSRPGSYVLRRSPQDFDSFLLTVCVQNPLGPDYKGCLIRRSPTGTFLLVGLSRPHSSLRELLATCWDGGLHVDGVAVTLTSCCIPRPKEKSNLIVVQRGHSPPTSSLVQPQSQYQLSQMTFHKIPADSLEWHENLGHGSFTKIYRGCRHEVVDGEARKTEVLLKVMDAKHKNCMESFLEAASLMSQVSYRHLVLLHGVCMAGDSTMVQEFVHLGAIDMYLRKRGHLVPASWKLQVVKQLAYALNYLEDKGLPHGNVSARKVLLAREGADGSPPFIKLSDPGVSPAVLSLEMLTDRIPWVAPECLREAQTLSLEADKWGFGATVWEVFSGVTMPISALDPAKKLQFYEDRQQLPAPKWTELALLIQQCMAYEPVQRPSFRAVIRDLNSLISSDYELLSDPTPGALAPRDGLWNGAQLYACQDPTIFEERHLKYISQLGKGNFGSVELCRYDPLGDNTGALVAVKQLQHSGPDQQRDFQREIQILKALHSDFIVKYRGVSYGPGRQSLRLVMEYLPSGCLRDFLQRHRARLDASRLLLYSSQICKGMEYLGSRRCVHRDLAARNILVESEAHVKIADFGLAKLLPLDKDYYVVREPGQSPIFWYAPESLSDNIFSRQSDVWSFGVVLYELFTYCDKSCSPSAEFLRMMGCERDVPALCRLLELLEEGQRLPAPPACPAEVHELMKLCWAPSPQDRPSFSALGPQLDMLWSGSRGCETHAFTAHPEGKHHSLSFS

inhibition at 0.1 µM (JAK3; compound at 100 nM): 20.4%
inhibition at 1 µM (JAK3; compound at 1 μM): 69.4%
inhibition at 0.1 µM (TIE2; compound at 100 nM): 12.8%
inhibition at 1 µM (TIE2; compound at 1 μM): 59.7%
SMILES: COc1ccc(-c2ccco2)cc1Nc1ncnc2[nH]nc(-c3ccco3)c12 [compound 2, 3-(furan-2-yl)-N-(5-(furan-2-yl)-2-methoxyphenyl)-1H-pyrazolo[3,4-d]pyrimidin-4-amine]
effect of gatekeeper mutation on binding affinity (wt HER2 or HER2 T798M): reduces the binding affinity

inhibition at 1 µM (MEK1): 66%
inhibition at 1 µM (MEK2): 70%
GI50 [2]: 7.7 ± 1 nM
SMILES: COc1ccc(-c2ccoc2)cc1Nc1ncnc2[nH]cc(-c3cc[nH]n3)c12 [compound 3, N-(5-(furan-3-yl)-2-methoxyphenyl)-5-(1H-pyrazol-3-yl)-7H-pyrrolo[2,3-d]pyrimidin-4-amine]
inhibition of pHER3 and downstream signaling [1]: better able to inhibit pHER3 and its downstream signaling pathways
sensitivity of proliferation inhibition to NRG (BT-474 cells): insensitive to the presence of NRG

SMILES: CS(=O)(=O)CCNCc1ccc(-c2ccc3ncnc(Nc4ccc(OCc5cccc(F)c5)c(Cl)c4)c3c2)o1 [lapatinib]
level of pathway inhibition distinguished by the Ba/F3 panel [3]: specifically inhibit signaling at the HER2/HER3 level
activation of EGFR family members ([4]; SK-BR-3, 1 μM lapatinib +/- NRG, 1 h): HER3 is the only member of the EGFR family who remains activated
HER2/HER3 signaling after NRG pre-treatment ([4]; SK-BR-3, NRG or vehicle 15 min then dose response 15 min): NRG pre-treatment rescues HER2/HER3 signaling
efficacy on signaling, 15 min pre-treat vs simultaneous addition with NRG ([4]; SK-BR-3, serum starved 24 h): reduced efficacy of lapatinib when simultaneously added with NRG
HER2/HER3 signaling over a time-course ([4]; SK-BR-3 treated with lapatinib, NRG, or both): NRG rescues p-HER3 and all downstream signaling at all time points examined
